Measurements from PMC5031696, “Synthesis, Biodistribution and In vitro Evaluation of Brain Permeable High Affinity Type 2 Cannabinoid Receptor Agonists [^11C]MA2 and [^18F]MA3” (Frontiers in Neuroscience, 2016).
Values joined by “and” are separate entries in the source; they are usually repeats but may differ in a detail not shown here. Identical values can stand only once.

Assays:
[1] = set-up: method as in Horti et al., 2010; conditions: rat brain, 2 min post injection; ref Horti et al., 2010; cited from earlier work
[2] = test system: CB2; set-up: method as in Evens et al., 2011; conditions: ref Evens et al., 2011; cited from earlier work
[3] = biodistribution studies in male NMRI mice; assay type: in vivo, mouse; conditions: NMRI mice; for % ID bladder + urine / % ID blood / SUV blood / % ID brain / SUV brain / % ID heart / SUV heart / % ID intestines / % ID kidneys / SUV kidneys / % ID liver / SUV liver / % ID lungs / SUV lungs / % ID pancreas / SUV pancreas / % ID spleen / SUV spleen / % ID stomach: i.v.
Method: The tissue distribution and kinetics of [^11C]MA2 and [^18F]MA3 were studied in male NMRI mice at 2, 10, 30, and 60 min post injection of the tracer. The results of the biodistribution studies are presented in Table 1 ([^11C]MA2) and Table 2 ([^18F]MA3) as percentage of injected dose (% ID) and standard uptake value (SUV).
The biodistribution of [^11C]MA2 and [^18F]MA3 was studied in normal male Naval Medical Research Institute (NMRI) mice. A solution of HPLC-purified [^11C]MA2 or [^18F]MA3 was diluted with saline to obtain an ethanol concentration < 10%. Mice were anesthetized with isoflurane (2% in oxygen) and injected intravenously (i.v.) with [^11C]MA2 (~ 9.25 MBq) or [^18F]MA3 (~ 0.92 MBq) via a lateral tail vein. The mice were sacrificed by decapitation at 2, and 60 min post injection (for [^11C]MA2, n = 4) and at 2, 10, 30, or 60 min post injection (for [^18F]MA3, n = 3 or 4 per time point) and dissected. Blood, organs, and other body parts were collected in tared tubes and the radioactivity in each tube was measured using an automated gamma counter. The tubes containing selected organs and blood were weighed. For calculation of total radioactivity in blood, blood mass was assumed to be 7% of the body mass (Fritzberg et al., [1982]). Quantitative data are expressed as mean ± standard deviation (SD). Means were compared using an unpaired two-tailed student t-test. Values were considered statistically significant for P ≤ 0.05.

[4] = plasma radiometabolite analysis; assay type: in vivo; conditions: mouse plasma, average of 2 assays
Method: The fraction of radiometabolites in mouse plasma at 2 and 30 min after injection of the tracer was determined by RP-HPLC analysis to investigate the in vivo stability of [^11C]MA2. […] At 2 min post injection of [^11C]MA2, 88% (n = 2) of the recovered radioactivity was assigned to the intact parent tracer. The percentage of intact [^11C]MA2 decreased to 34% at 30 min post injection of the tracer. All detected radiometabolites were more polar than the intact tracer.
After i.v. administration of [^11C]MA2 (~ 9.25 MBq) via a lateral tail vein to anesthetized NMRI mice (isoflurane 2% in oxygen), the mice were decapitated at 2 or 30 min post injection (n = 2 per time point). […] The isolated plasma was spiked with authentic non-radioactive MA2 (15 μL of 1 mg/mL solution in CH3CN) and analyzed by RP-HPLC on a Chromolith RP C18 column (3 mm x 100 mm; Merck) eluted with gradient mixtures of CH3CN (A) and 0.05 M NaOAc pH 5.5 (B) (0–5 min: Isocratic 100% B, flow rate of 0.5 mL/min; 5–10 min: Linear gradient 100 B to 10% B, flow rate of 1 mL/min; 10–13 min: Isocratic 10% B, flow rate of 1 mL/min; 13–13.1 min: Linear gradient 10 B to 100% B, flow rate of 0.5 mL/min; 13.1–15 min: Isocratic 100% B, flow rate of 0.5 mL/min). […] The radioactivity in all fractions was measured using an automated gamma counter. […]

Cc1sc(=NC(=O)C2C(C)(C)C2(C)C)n(CCO[11CH3])c1C [[^11C]A-836339]
SUV in brain [1]: ~ 0.5

Cc1c(CCN2CCOCC2)c2cc(O[11CH3])ccc2n1C(=O)c1cccc(Cl)c1Cl [[^11C]GW405833]
binding affinity for CB2 [2]: 35 nM

[11CH3]Oc1ccc2ncc(NCCCc3nc(-c4ccc(F)cc4Cl)no3)cc2c1 [[^11C]MA2]
accumulation in the spleen [3]: no accumulation
% ID bladder + urine ([3]; 2 min post injection): 0.2 ± 0.1 % ID
% ID bladder + urine ([3]; 60 min post injection): 4.5 % ID and 4.5 ± 1.0 % ID
% ID blood ([3]; 2 min post injection): 5.8 ± 0.4 % ID
SUV blood ([3]; 2 min post injection): 0.8 ± 0.1
% ID blood ([3]; 60 min post injection): 0.7 ± 0.1 % ID
SUV blood ([3]; 60 min post injection): 0.1 ± 0.0
% ID brain ([3]; 2 min post injection): 1.6 % ID and 1.6 ± 0.5 % ID
SUV brain ([3]; 2 min post injection): 1.8 ± 0.2
% ID brain ([3]; 60 min post injection): 0.1 ± 0.0 % ID
SUV brain ([3]; 60 min post injection): 0.1 ± 0.0
blood % ID 2 min/60 min ratio ([3]; clearance from blood): 8.6
% ID heart ([3]; 2 min post injection): 1.4 ± 0.4 % ID
SUV heart ([3]; 2 min post injection): 3.3 ± 0.6
% ID heart ([3]; 60 min post injection): 0.1 ± 0.0 % ID
SUV heart ([3]; 60 min post injection): 0.1 ± 0.0
% ID intestines ([3]; 2 min post injection): 9.7 ± 0.4 % ID
% ID intestines ([3]; 60 min post injection): 63.8 % ID and 63.8 ± 2.9 % ID
% ID kidneys ([3]; 2 min post injection): 8.3 ± 1.6 % ID
SUV kidneys ([3]; 2 min post injection): 5.1 ± 0.7
% ID kidneys ([3]; 60 min post injection): 1.0 ± 0.3 % ID
SUV kidneys ([3]; 60 min post injection): 0.6 ± 0.1
% ID liver ([3]; 2 min post injection): 28.3 ± 2.9 % ID
SUV liver ([3]; 2 min post injection): 6.0 ± 0.1
% ID liver ([3]; 60 min post injection): 9.1 ± 3.0 % ID
SUV liver ([3]; 60 min post injection): 2.0 and 2.0 ± 0.5
% ID lungs ([3]; 2 min post injection): 1.4 ± 0.3 % ID
SUV lungs ([3]; 2 min post injection): 2.3 ± 0.4
% ID lungs ([3]; 60 min post injection): 0.1 ± 0.0 % ID
SUV lungs ([3]; 60 min post injection): 0.2 ± 0.0
% ID pancreas ([3]; 2 min post injection): 1.6 ± 0.8 % ID
SUV pancreas ([3]; 2 min post injection): 2.2 ± 1.0
% ID pancreas ([3]; 60 min post injection): 0.2 ± 0.1 % ID
SUV pancreas ([3]; 60 min post injection): 0.3 ± 0.0
% ID spleen ([3]; 2 min post injection): 0.5 ± 0.2 % ID
SUV spleen ([3]; 2 min post injection): 2.0 ± 0.2
% ID spleen ([3]; 60 min post injection): 0.03 ± 0.01 % ID
SUV spleen ([3]; 60 min post injection): 0.2 ± 0.0
% ID stomach ([3]; 2 min post injection): 1.3 ± 0.3 % ID
% ID stomach ([3]; 60 min post injection): 4.2 ± 3.9 % ID
brain % ID 2 min/60 min ratio ([3]; wash-out from brain): 18.4
% of intact tracer in blood plasma ([4]; 2 min post injection): 88%
% of intact tracer in blood plasma ([4]; 30 min post injection): 34%
